{
  "source": "paper PMC5344293",
  "about": "“A phase 1 dose-escalation and expansion study of binimetinib (MEK162), a potent and selective oral MEK1/2 inhibitor” (British Journal of Cancer, 2017)",
  "key": {"purified MEK enzyme": {"molecular_target": "purified MEK enzyme", "set-up": "method as in Lee et al, 2010; Woessner et al, 2010", "conditions": "ref Lee et al, 2010, Woessner et al, read-out: half-maximal inhibitory concentration; cited from earlier work"}, "[1]": {"experiment": "Plasma pharmacokinetics in patients", "assay_type": "in vivo, human", "conditions": "for RAUC (accumulation ratio) / Cmax / AUC(0-t): geometric mean (% CV); for Cmax / AUC(0-t) / Tmax: human, plasma, oral", "method": "Blood for plasma binimetinib and metabolite concentration assessments was collected on cycle 1 day 1 (pre-dose and 30 min to 24 h post dose), cycle 1 day 15 (pre-dose and 30 min to 8 h post dose), and cycles 2 to 8 day 1 (pre-dose) from patients in the dose-escalation phase and from selected patients in the biliary cancer cohort of the expansion phase (intensive pharmacokinetic sampling). The remaining patients in the expansion phase underwent limited pharmacokinetic sampling on cycle 1 day 1 (pre-dose), cycle 1 day 8 (pre-dose), cycle 1 day 15 (pre-dose and 30 min to 8 h post dose), cycle 2 day 1 (pre-dose), cycle 3 day 1 (pre-dose and 30 min to 8 h post dose), and cycles 4–8 day 1 (pre-dose). Standard non-compartmental pharmacokinetic parameters were calculated on serial pharmacokinetic collection days (cycle 1 day 1 and cycle 1 day 15 for the dose-escalation phase; cycle 1 day 15 and cycle 3 day 1 for the expansion phase) for each patient and summarised by cohort. Dose proportionality, accumulation, and metabolite-to-parent ratio were assessed as appropriate."}, "[2]": {"test_system": "biliary cancer, KRAS- or BRAF-mutant colorectal cancer", "experiment": "Kaplan–Meier PFS and OS, expansion phase cohorts", "assay_type": "in vivo, human", "method": "All patients who received ⩾1 dose of binimetinib were included in the safety analysis. Patients in the safety analysis who had ⩾1 measurable lesion at baseline and at least 1 post-baseline disease assessment were evaluable for efficacy. Kaplan–Meier estimates of progression-free survival (PFS) and overall survival (OS) were performed for patients in the expansion phase ([Kaplan and Meier, 1958]) using SAS Version 9.2 (SAS Institute Inc., Cary, NC, USA)."}, "human cancer cell lines": {"test_system": "human cancer cell lines", "set-up": "method as in Lee et al, 2010", "conditions": "subset of cells; particularly active with activating BRAF, NRAS, KRAS mutations; ref Lee et al, 2010; cited from earlier work"}, "pMEK": {"test_system": "pMEK", "experiment": "Skin punch biopsy pMEK expression", "assay_type": "in vivo, human", "conditions": "pre-dose and post-dose skin punch biopsies"}, "[3]": {"conditions": "BRAF-mutant colorectal cancer cohort (45 mg BID)"}, "[4]": {"conditions": "KRAS-mutant colorectal cancer 45 mg dose cohort"}, "[5]": {"conditions": "KRAS-mutant colorectal cancer 60 mg dose cohort"}},
  "note": "pIC50: −log10 of the molar value. Entries after “also recorded” stand apart in the source; their conditions may differ. Read-outs that look alike come from different tables or passages of the source.",
  "data": [
    {"smiles": "Cn1cnc2c(F)c(Nc3ccc(Br)cc3F)c(C(=O)NOCCO)cc21", "note": "[binimetinib]", "values": [
      {"measurement": "pIC50", "setting": "purified MEK enzyme", "value": 7.92},
      {"measurement": "RAUC (accumulation ratio)", "setting": "[1]; cycle 1 day 15, Total (N=26)", "value": "1.44 (32.8)"},
      {"measurement": "RAUC (accumulation ratio)", "setting": "[1]; cycle 1 day 15, expansion Biliary 60 mg BID (n=7)", "value": "2.50 (NC)"},
      {"measurement": "Cmax", "setting": "[1]; 30 mg BID, cycle 1 day 1, dose-escalation 30 mg BID (n=4)", "value": 327, "unit": "ng/mL"},
      {"measurement": "AUC(0-t)", "setting": "[1]; 30 mg BID, cycle 1 day 1, dose-escalation 30 mg BID (n=4), intensive sampling, read-out: AUC0–8", "value": 1000, "unit": "ng·h/mL"},
      {"measurement": "Tmax", "setting": "[1]; 30 mg BID, cycle 1 day 1, dose-escalation 30 mg BID (n=4), median (minimum–maximum), read-out: tmax", "value": 1.51, "unit": "h"},
      {"measurement": "Tmax", "setting": "[1]; 30 mg BID, cycle 1 day 15, dose-escalation 30 mg BID (n=4), median (minimum–maximum), read-out: tmax", "value": 1.5, "unit": "h"},
      {"measurement": "Cmax", "setting": "[1]; 30 mg, cycle 1 day 15, dose-escalation 30 mg BID (n=4)", "value": 417, "unit": "ng/mL"},
      {"measurement": "Cmax", "setting": "[1]; 45 mg BID, cycle 1 day 1, dose-escalation 45 mg BID (n=4)", "value": 241, "unit": "ng/mL"},
      {"measurement": "AUC(0-t)", "setting": "[1]; 45 mg BID, cycle 1 day 1, dose-escalation 45 mg BID (n=4), intensive sampling, read-out: AUC0–8", "value": 964, "unit": "ng·h/mL"},
      {"measurement": "Tmax", "setting": "[1]; 45 mg BID, cycle 1 day 1, dose-escalation 45 mg BID (n=4), median (minimum–maximum), read-out: tmax", "value": 2.53, "unit": "h"},
      {"measurement": "Tmax", "setting": "[1]; 45 mg BID, cycle 1 day 15, dose-escalation 45 mg BID (n=4), median (minimum–maximum), read-out: tmax", "value": 2, "unit": "h"},
      {"measurement": "Cmax", "setting": "[1]; 45 mg, cycle 1 day 15, dose-escalation 45 mg BID (n=4)", "value": 273, "unit": "ng/mL"},
      {"measurement": "AUC(0-t)", "setting": "[1]; 45 mg, cycle 1 day 15, dose-escalation 45 mg BID (n=4), read-out: AUC0-8", "value": 1490, "unit": "ng·h/mL"},
      {"measurement": "Cmax", "setting": "[1]; 60 mg BID, cycle 1 day 1, dose-escalation 60 mg BID (n=7)", "value": 545, "unit": "ng/mL"},
      {"measurement": "AUC(0-t)", "setting": "[1]; 60 mg BID, cycle 1 day 1, dose-escalation 60 mg BID (n=7), intensive sampling, read-out: AUC0–8", "value": 1710, "unit": "ng·h/mL"},
      {"measurement": "Tmax", "setting": "[1]; 60 mg BID, cycle 1 day 1, dose-escalation 60 mg BID (n=7), median (minimum–maximum), read-out: tmax", "value": 1, "unit": "h"},
      {"measurement": "Tmax", "setting": "[1]; 60 mg BID, cycle 1 day 15, dose-escalation 60 mg BID (n=7), median (minimum–maximum), read-out: tmax", "value": 3, "unit": "h"},
      {"measurement": "Cmax", "setting": "[1]; 60 mg, cycle 1 day 1, expansion Biliary 60 mg BID (n=7)", "value": 365, "unit": "ng/mL"},
      {"measurement": "AUC(0-t)", "setting": "[1]; 60 mg, cycle 1 day 1, expansion Biliary 60 mg BID (n=7), intensive sampling, read-out: AUC0–8", "value": 1090, "unit": "ng·h/mL"},
      {"measurement": "Tmax", "setting": "[1]; 60 mg, cycle 1 day 1, expansion Biliary 60 mg BID (n=7), median (minimum–maximum), read-out: tmax", "value": 1.5, "unit": "h"},
      {"measurement": "Cmax", "setting": "[1]; 60 mg, cycle 1 day 15, dose-escalation 60 mg BID (n=7)", "value": 512, "unit": "ng/mL"},
      {"measurement": "AUC(0-t)", "setting": "[1]; 60 mg, cycle 1 day 15, dose-escalation 60 mg BID (n=7), read-out: AUC0-8", "value": 1820, "unit": "ng·h/mL"},
      {"measurement": "Cmax", "setting": "[1]; 60 mg, cycle 1 day 15, expansion Biliary 60 mg BID (n=7)", "value": 594, "unit": "ng/mL"},
      {"measurement": "AUC(0-t)", "setting": "[1]; 60 mg, cycle 1 day 15, expansion Biliary 60 mg BID (n=7), read-out: AUC0-8", "value": 3760, "unit": "ng·h/mL"},
      {"measurement": "Tmax", "setting": "[1]; 60 mg, cycle 1 day 15, expansion Biliary 60 mg BID (n=7), median (minimum–maximum), read-out: tmax", "value": 1.5, "unit": "h"},
      {"measurement": "Cmax", "setting": "[1]; 80 mg BID, cycle 1 day 1, dose-escalation 80 mg BID (n=4)", "value": 687, "unit": "ng/mL"},
      {"measurement": "AUC(0-t)", "setting": "[1]; 80 mg BID, cycle 1 day 1, dose-escalation 80 mg BID (n=4), intensive sampling, read-out: AUC0–8", "value": 2220, "unit": "ng·h/mL"},
      {"measurement": "Tmax", "setting": "[1]; 80 mg BID, cycle 1 day 1, dose-escalation 80 mg BID (n=4), median (minimum–maximum), read-out: tmax", "value": 2.02, "unit": "h"},
      {"measurement": "Tmax", "setting": "[1]; across all dose levels and both sampling schemes, read-out: tmax, median values", "value": "0.5 to 4", "unit": "h"},
      {"measurement": "Tmax", "setting": "[1]; cycle 1 day 1, Total (N=26), median (minimum–maximum), read-out: tmax", "value": 1.5, "unit": "h"},
      {"measurement": "Tmax", "setting": "[1]; cycle 1 day 15, Total (N=26), median (minimum–maximum), read-out: tmax", "value": 1.5, "unit": "h"},
      {"measurement": "Pre-dose concentrations on cycle 1 day 15 versus 12 h concentrations on day 1", "setting": "[1]; intensive pharmacokinetic sampling", "value": "up to threefold higher"},
      {"measurement": "Steady state", "setting": "[1]; limited sampling, 45 and 60 mg BID, no formal steady-state analysis", "value": "likely at steady state by cycle 1 day 15"},
      {"measurement": "Dose proportionality of exposure", "setting": "[1]; over the dose range tested, days 1 and 15 of cycle 1", "value": "Dose-proportional increases; also recorded: approximately dose proportional"},
      {"measurement": "Median OS", "setting": "[2]; [3]", "value": 7.1, "unit": "months"},
      {"measurement": "Median PFS", "setting": "[2]; [3]", "value": 1.4, "unit": "months"},
      {"measurement": "Median OS", "setting": "[2]; [4]", "value": 4.7, "unit": "months"},
      {"measurement": "Median PFS", "setting": "[2]; [4]", "value": 1.5, "unit": "months"},
      {"measurement": "Median OS", "setting": "[2]; [5]", "value": 9.1, "unit": "months"},
      {"measurement": "Median PFS", "setting": "[2]; [5]", "value": 3.5, "unit": "months"},
      {"measurement": "Median OS", "setting": "[2]; biliary cohort (60 mg BID)", "value": 4.8, "unit": "months"},
      {"measurement": "Median PFS", "setting": "[2]; biliary cohort (60 mg BID)", "value": 2.1, "unit": "months"},
      {"measurement": "Inhibition of proliferation", "setting": "human cancer cell lines", "value": "potently inhibits"},
      {"measurement": "Change in skin pMEK relative to baseline", "setting": "pMEK", "value": "no notable changes"}
    ]}
  ]
}
